Each compound was assayed against T1, Corticosteroid-binding globulin (Homo sapiens) (UniProt P08185) (assay: Compound was evaluated for its binding affinity towards the human corticosteroid binding globulin).
T1 sequence (whole entry): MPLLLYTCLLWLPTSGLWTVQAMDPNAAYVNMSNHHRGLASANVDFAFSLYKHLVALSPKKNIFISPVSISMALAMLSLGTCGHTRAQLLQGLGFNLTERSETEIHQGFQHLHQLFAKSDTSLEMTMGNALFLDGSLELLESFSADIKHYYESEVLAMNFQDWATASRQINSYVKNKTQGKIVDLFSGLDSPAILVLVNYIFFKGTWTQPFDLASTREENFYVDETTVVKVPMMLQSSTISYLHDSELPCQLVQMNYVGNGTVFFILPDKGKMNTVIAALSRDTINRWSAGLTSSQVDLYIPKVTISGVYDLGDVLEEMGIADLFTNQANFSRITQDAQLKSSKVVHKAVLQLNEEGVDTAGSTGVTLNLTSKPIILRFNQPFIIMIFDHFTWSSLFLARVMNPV

In order of falling Log:
1. C[C@@H]1C[C@@]2(C)C(=CC1=O)CC[C@H]1[C@@H]3CC[C@](O)(C(=O)CO)[C@@]3(C)C[C@H](O)[C@@]12F  -5.8 k
2. C[C@]12CC[C@H]3[C@@H](CCC4=CC(=O)CC[C@@H]43)[C@@H]1CC[C@@H]2O  -6.14 k
3. CC(=O)[C@@]1(O)[C@H](O)C[C@H]2[C@@H]3CCC4=CC(=O)CC[C@]4(C)[C@H]3CC[C@@]21C  -6.25 k
4. CC(=O)[C@H]1CC[C@H]2[C@@H]3CCC4=CC(=O)CC[C@]4(C)[C@H]3C(=O)C[C@]12C  -6.78 k
5. CC(=O)[C@H]1CCC2C3CCC4=CC(=O)CCC4C3CC[C@@]21C (some centres undefined)  -6.82 k
6. CC(=O)[C@H]1[C@H](C)C[C@H]2[C@@H]3CCC4=CC(=O)CC[C@]4(C)[C@H]3CC[C@@]21C  -7.12 k
7. C[C@]12C[C@@H](O)[C@H]3[C@@H](CCC4=CC(=O)CC[C@@]43C)[C@@H]1CC[C@@H]2C(=O)CO  -7.2 k
8. C[C@]12C=CC(=O)C=C1CC[C@@H]1[C@@H]2[C@@H](O)C[C@@]2(C)[C@H]1CC[C@]2(O)C(=O)CO  -7.51 k
9. CC(=O)OCC(=O)[C@@]1(O)CCC2C3CCC4=CC(=O)CC[C@]4(C)C3[C@@H](O)C[C@@]21C (some centres undefined)  -7.55 k

Source: ChEMBL document CHEMBL1132579, “Self-organizing molecular field analysis: a tool for structure-activity studies” (J Med Chem, 1999)
